Measured values from ChEMBL document CHEMBL1155679, “New xenicane diterpenoids from the gorgonian Acalycigorgia inermis” (2000).
≈ marks a conversion by molar mass, not a printed value.

Test system: K562
Assay: Cytotoxicity against human K562 cells
Type: functional
Conditions: read-out: LC50 (the source's name)

`C=C=CCC[C@@H]1C(=O)OC[C@H]2C(=C)CC[C@@H]3O[C@@]3(C)CC[C@H]12` [ACALYCIXENIOLIDE C] was tested, and the CC50 was 1.6 µg/mL (≈ 5.29 µM).
With `C=C=CC/C=C1/C(=O)OC[C@H]2C(=C)CC[C@@H]3O[C@@]3(C)CC[C@H]12` [ACALYCIXENIOLIDE D] the CC50 was 52 µg/mL (≈ 173 µM).
With `C=C=CCC(OC(C)=O)C1=CO[C@H](OC(C)=O)[C@H]2C(=C)CC[C@@H]3O[C@@]3(C)CC[C@H]12` (some centres undefined) [ACALYCIXENIOLIDE E] the CC50 was 4.7 µg/mL (≈ 11.7 µM).
With `C=C1CC[C@@H]2O[C@@]2(C)CC[C@@H]2[C@H](CCC=C(C)C)C(=O)OC[C@@H]12` [ACALYCIXENIOLIDE F] the CC50 was 0.2 µg/mL (≈ 0.628 µM).
